Data: patent US4138554A, “7-[D-α-(4-Hydroxy-1,5-naphthyridine-3-carboxamido)-α-phenyl (and p-hydroxyphenyl)acetamido]-3-carbamoyloxymethyl-3-cephem-4-carboxylic acids” (priority 1977, dated 1979)
In brackets after ≈: the same amount, converted by molar mass. Like-named read-outs stand apart in the source and are kept apart here.

Key:
Type in all cases: cell-based
S. aureus = test: MIC by serial two-fold agar dilution (Mueller-Hinton agar), S. aureus; conditions: Staphylococcus aureus, read-out: MIC
Experimental: (§1) Minimum inhibitory concentrations (MIC) of BB-S520 were determined by serial two-fold agar dilution method using Steers' apparatus on Meuller-Hinton agar plate against 31 test organisms for the primary screening and also against 61 strains of Pseudomonas aeruginosa for the secondary evaluation. The results are shown in Table 1 and Table 2 along with those of BB-S514 and sulbenicillin.
(§2) Minimum inhibitory concentrations (MIC) of cephalosporins in the present study were determined by serial two-fold agar dilution method using Steers' apparatus on Mueller-Hinton agar plate against 31 test organisms for the primary screening and also against 61 strains of Pseudomonas aeruginosa for the secondary evaluation.

E. coli = test: MIC by serial two-fold agar dilution (Mueller-Hinton agar), E. coli; conditions: Escherichia coli, Table 1
Experimental: as §1, §2

K. pneumoniae = test: MIC by serial two-fold agar dilution (Mueller-Hinton agar), K. pneumoniae; conditions: Klebsiella pneumoniae, K. pneumoniae, Table 1
Experimental: as §1, §2

Klebsiella sp. = test: MIC by serial two-fold agar dilution (Mueller-Hinton agar), Klebsiella sp.; conditions: Klebsiella sp., Table 1; read-out: MIC
Experimental: as §1, §2

E. cloacae = test: MIC by serial two-fold agar dilution (Mueller-Hinton agar), E. cloacae; conditions: Enterobacter cloacae, Table 1
Experimental: as §1, §2

P. mirabilis = test: MIC by serial two-fold agar dilution (Mueller-Hinton agar), P. mirabilis; conditions: Proteus mirabilis; P. mirabilis, Table 1; read-out: MIC
Experimental: as §1, §2

P. vulgaris = test: MIC by serial two-fold agar dilution (Mueller-Hinton agar), P. vulgaris; conditions: Proteus vulgaris; P. vulgaris, Table 1; read-out: MIC
Experimental: as §1, §2

P. morganii = test: MIC by serial two-fold agar dilution (Mueller-Hinton agar), P. morganii; conditions: Morganella morganii; P. morganii, Table 1; read-out: MIC
Experimental: as §1, §2

S. enteritidis = test: MIC by serial two-fold agar dilution (Mueller-Hinton agar), S. enteritidis; conditions: Salmonella enterica; S. enteritidis, Table 1; read-out: MIC
Experimental: as §1, §2

S. marcescens = test: MIC by serial two-fold agar dilution (Mueller-Hinton agar), S. marcescens; conditions: Serratia marcescens; S. marcescens, Table 1; read-out: MIC
Experimental: as §1, §2

P. aeruginosa = test: MIC by serial two-fold agar dilution (Mueller-Hinton agar), P. aeruginosa, primary screening; conditions: Pseudomonas aeruginosa, Table 1, read-out: MIC
Experimental: as §1, §2

[1] = test system: Gram-positive (6 strains); test: Mean % relative activity (MIC) vs sulbenicillin, Gram-positive (6 strains); conditions: Gram-positive (6 strains), from geometric means of MICs in Table 1
Experimental: as §1, §2

[2] = test system: Gram-negative (19 strains); test: Mean % relative activity (MIC) vs sulbenicillin, Gram-negative (19 strains); conditions: Gram-negative (19 strains), from geometric means of MICs in Table 1
Experimental: as §1, §2

Pseudomonas (6 strains) = test: Mean % relative activity (MIC) vs sulbenicillin, Pseudomonas (6 strains); conditions: Pseudomonas (6 strains), from geometric means of MICs in Table 1
Experimental: as §1, §2

CC(=O)OCC1=C(C(=O)O)N2C(=O)C(NC(=O)C(NC(=O)c3cnc4cccnc4c3O)c3ccccc3)C2SC1 (stereo not shown) [BB-S514]
MIC (S. aureus; S. aureus BX-1633, Table 1): 3.1 µg/mL (≈ 5.37 µM) | MIC (S. aureus; S. aureus Smith (1st line), Table 1): 3.1 µg/mL (≈ 5.37 µM) | MIC (S. aureus; S. aureus Smith (2nd line), Table 1): 6.3 µg/mL (≈ 10.9 µM) | MIC (S. aureus; S. aureus, unnamed strain (4th S. aureus line), Table 1): 25 µg/mL (≈ 43.3 µM) | MIC (S. aureus; S. aureus, unnamed strain (5th S. aureus line), Table 1): 6.3 µg/mL (≈ 10.9 µM) | MIC (S. aureus; S. aureus, unnamed strain (6th S. aureus line), Table 1): > 100 µg/mL | MIC (E. coli; E. coli Juhl, read-out: MIC): 12.5 µg/mL (≈ 21.6 µM) | MIC (E. coli; E. coli NIHJ, read-out: MIC): 0.1 µg/mL (≈ 0.173 µM) | MIC (E. coli; E. coli, unnamed strain (3rd E. coli line)): 0.4 µg/mL (≈ 0.693 µM) | MIC (E. coli; E. coli, unnamed strain (4th E. coli line), read-out: MIC): 0.4 µg/mL (≈ 0.693 µM) | MIC (E. coli; E. coli, unnamed strain (5th E. coli line), read-out: MIC): > 100 µg/mL | MIC (E. coli; E. coli, unnamed strain (6th E. coli line), read-out: MIC): 6.3 µg/mL (≈ 10.9 µM) | MIC (E. coli; E. coli, unnamed strain (7th E. coli line), read-out: MIC): > 100 µg/mL | MIC (E. coli; E. coli, unnamed strain (8th E. coli line), read-out: MIC): 12.5 µg/mL (≈ 21.6 µM) | MIC (E. coli; E. coli, unnamed strain (9th E. coli line), read-out: MIC): 0.8 µg/mL (≈ 1.39 µM) | MIC (K. pneumoniae): 6.3 µg/mL (≈ 10.9 µM) | MIC (Klebsiella sp.): 12.5 µg/mL (≈ 21.6 µM) | MIC (E. cloacae; E. cloacae (1st line)): 25 µg/mL (≈ 43.3 µM) | MIC (E. cloacae; E. cloacae (2nd line)): 50 µg/mL (≈ 86.6 µM) | MIC (E. cloacae; E. cloacae (3rd line)): 25 µg/mL (≈ 43.3 µM) | MIC (P. mirabilis): 0.8 µg/mL (≈ 1.39 µM) | MIC (P. vulgaris): 25 µg/mL (≈ 43.3 µM) | MIC (P. morganii): > 100 µg/mL | MIC (S. enteritidis): 6.3 µg/mL (≈ 10.9 µM) | MIC (S. marcescens): > 100 µg/mL | MIC (P. aeruginosa; P. aeruginosa (1st line)): 3.1 µg/mL (≈ 5.37 µM) | MIC (P. aeruginosa; P. aeruginosa (2nd line)): 3.1 µg/mL (≈ 5.37 µM) | MIC (P. aeruginosa; P. aeruginosa (3rd line)): 6.3 µg/mL (≈ 10.9 µM) | MIC (P. aeruginosa; P. aeruginosa (4th line)): 25 µg/mL (≈ 43.3 µM) | MIC (P. aeruginosa; P. aeruginosa (5th line)): 6.3 µg/mL (≈ 10.9 µM) | MIC (P. aeruginosa; P. aeruginosa (6th line)): 3.1 µg/mL (≈ 5.37 µM) | Mean % Relative Activity (Sulbenicillin = 100%) [1]: 71% | Mean % Relative Activity (Sulbenicillin = 100%) [2]: 96% | Mean % Relative Activity (Sulbenicillin = 100%) (Pseudomonas (6 strains)): 283%
